Test results reported in ChEMBL document CHEMBL1146628, “Identification of TNF-alpha inhibitors from a split-pool library based on a tyrosine-proline peptidomimetic scaffold” (Bioorg Med Chem Lett, 2003).

Legend:
Conditions in all cases: Homo sapiens
A549 [1] = assay: Inhibitory concentration (resynthesized pure material) against TNF-alpha induced apoptosis of A549 cells; format: functional, cell-based
A549 [2] = assay: Inhibitory concentration (solid phase) against TNF-alpha induced apoptosis of A549 cells; format: functional, cell-based
A549 [3] = assay: Inhibitory concentration (resynthesized pure material) against TNF-alpha induced apoptosis of A549 cells at 20 uM; format: functional

IC50 (A549 [1])	IC50 (A549 [2])	Structure (SMILES)	inhibition at 20 µM (A549 [3])
10.1 µM		CCCCCN(CCCCC)C(=O)[C@@H]1C[C@H](Oc2ccc(C[C@H](NC(=O)C(CC)CC)C(N)=O)cc2)CN1C(=O)c1cnc2ccccc2c1	
8.1 µM	11.1 µM	CCCCCN(CCCCC)C(=O)[C@@H]1C[C@H](Oc2ccc(C[C@H](NC(=O)Cc3ccccc3)C(N)=O)cc2)CN1C(=O)c1cnc2ccccc2c1	
12.9 µM	15.4 µM	CCCCCN(CCCCC)C(=O)[C@@H]1C[C@H](Oc2ccc(C[C@H](NC(=O)c3cnc4ccccc4c3)C(N)=O)cc2)CN1C(=O)c1cnc2ccccc2c1	
		CCCCCN(CCCCC)C(=O)[C@@H]1C[C@H](Oc2ccc(C[C@H](NC(=O)CC)C(N)=O)cc2)CN1C(=O)c1cnc2ccccc2c1	35%
